Assay results published in ChEMBL document CHEMBL4813933, “Discovery of Thanafactin A, a Linear, Proline-Containing Octalipopeptide from Pseudomonas sp. SH-C52, Motivated by Genome Mining” (J Nat Prod, 2021).
Calls of active or inactive are those of the source.

How the values were obtained:
[1] = molecular target: T1, Cathepsin K (Homo sapiens) (UniProt P43235); assay: Inhibition of human cathepsin K at 10 uM using Z-Leu-Arg-AMC as substrate incubated for 60 mins by fluorometric assay
T1 sequence (whole entry): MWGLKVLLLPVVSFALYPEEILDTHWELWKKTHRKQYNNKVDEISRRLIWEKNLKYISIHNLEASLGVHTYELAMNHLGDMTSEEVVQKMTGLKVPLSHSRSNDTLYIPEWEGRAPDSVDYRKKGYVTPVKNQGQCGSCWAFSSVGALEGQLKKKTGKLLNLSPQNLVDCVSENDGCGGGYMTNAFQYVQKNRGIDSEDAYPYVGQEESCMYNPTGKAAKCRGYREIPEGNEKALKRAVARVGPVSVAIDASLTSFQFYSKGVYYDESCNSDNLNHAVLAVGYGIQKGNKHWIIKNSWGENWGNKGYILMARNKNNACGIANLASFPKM

[2] = system: Chromobacterium violaceum; assay: Inhibition of quorum sensing system in Chromobacterium violaceum CV026 assessed as reduction in swarming motility at 1 mg/ml measured after 1 hr
Staphylococcus aureus = assay: Inhibition of quorum sensing system in Staphylococcus aureus PC322 assessed as reduction in swarming motility at 1 mg/ml measured after 1 hr

Measured: inhibition

CCCCCCC[C@@H](O)CC(=O)N[C@@H](C(=O)N[C@H](C)C(=O)N[C@H](CCC(N)=O)C(=O)N[C@@H](C)C(=O)N[C@@H](C(=O)N[C@@H](C)C(=O)N1CCC[C@H]1C(=O)N[C@H](C(=O)O)[C@@H](C)O)C(C)C)C(C)C
inactive: all assays above
